One assay has as its target T1, human H3 receptor (Homo sapiens, UniProt Q9Y5N1).
T1 construct: expressed in transfected cells
In words: H3 receptor binding (N-[3H]-α-methylhistamine displacement, SK-N-MC cell membranes). To be noted: 0.8 nM N-[3H]-α-methylhistamine, 60 min at 25° C. The protocol: Binding of compounds to the cloned human H3 receptor, stably expressed in SK-N-MC cells, was performed (Lovenberg, T. W. et al. J. Pharmacol. Exp. Ther. 2000, 293, 771-778). Briefly, cell pellets from SK-N-MC cells expressing the human H3 receptor were homogenized in 50 mM Tris-HCl/5 mM EDTA and re-centrifuged at 30,000 g for 30 min. Pellets were re-homogenized in 50 mM Tris/5 mM EDTA (pH 7.4). Membranes were incubated with 0.8 nM N—[^3H]-α-methylhistamine plus/minus test compounds for 60 min at 25° C. and harvested by rapid filtration over GF/C glass fiber filters (pretreated with 0.3% polyethylenimine) followed by four washes with ice-cold buffer. Nonspecific binding was defined in the presence of 10 μM histamine.

In the next assay the target is T2, Rat SERT (Rattus norvegicus, UniProt P31652).
T2 construct: A rat brain without cerebellum (Zivic Laboratories, Inc.—Pittsburgh, Pa.) was homogenized; tissue Zivic Laboratories, Inc; host or cells: rat brain without cerebellum
T2 sequence (P31652 whole entry): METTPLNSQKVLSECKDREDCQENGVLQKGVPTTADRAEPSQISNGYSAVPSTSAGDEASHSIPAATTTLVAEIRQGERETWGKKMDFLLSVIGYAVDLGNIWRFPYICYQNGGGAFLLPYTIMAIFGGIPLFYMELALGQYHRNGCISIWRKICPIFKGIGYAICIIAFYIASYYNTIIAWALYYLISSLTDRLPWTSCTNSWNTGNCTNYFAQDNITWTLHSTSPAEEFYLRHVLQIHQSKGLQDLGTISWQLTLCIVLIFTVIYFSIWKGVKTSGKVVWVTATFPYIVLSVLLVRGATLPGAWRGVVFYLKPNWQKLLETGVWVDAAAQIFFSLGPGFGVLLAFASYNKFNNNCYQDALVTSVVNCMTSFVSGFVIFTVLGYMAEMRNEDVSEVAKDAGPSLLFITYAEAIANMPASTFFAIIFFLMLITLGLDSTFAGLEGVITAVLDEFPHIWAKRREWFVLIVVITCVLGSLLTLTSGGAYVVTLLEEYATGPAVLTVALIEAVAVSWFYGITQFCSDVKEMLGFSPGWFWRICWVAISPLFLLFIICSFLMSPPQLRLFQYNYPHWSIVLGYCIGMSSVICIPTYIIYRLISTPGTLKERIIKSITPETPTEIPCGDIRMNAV
In words: Rat brain SERT binding ([3H]-Citalopram displacement, rat brain membranes). To be noted: 0.6 nM [3H]-Citalopram, 60 min at 25° C. The protocol: A rat brain without cerebellum (Zivic Laboratories, Inc.—Pittsburgh, Pa.) was homogenized in a 52.6 mM Tris pH 8/126.4 mM NaCl/5.26 mM KCl mixture and centrifuged at 1,000 rpm for 5 min. The supernatant was removed and re-centrifuged at 15,000 rpm for 30 min. Pellets were re-homogenized in a 52.6 mM Tris pH8/126.4 mM NaCl/5.26 mM KCl mixture. Membranes were incubated with 0.6 nM [^3H]-Citalopram plus/minus test compounds for 60 min at 25° C. and harvested by rapid filtration over GF/C glass fiber filters (pretreated with 0.3% polyethylenimine) followed by four washes with ice-cold buffer. Nonspecific binding was defined in the presence of 100 μM fluoxetine.

A further assay addresses T3, human SERT (Homo sapiens, UniProt P31645).
T3 construct: expressed in transfected cells; host or cells: HEK293
In words: Human SERT binding (3H-citalopram displacement, HEK293 membranes). The settings on record: 3H-citalopram 3.1 nM, rt for 1 h. The protocol:
Homogenized HEK293 (Human Embryonic Kidney) membranes expressing the human SERT were incubated with ^3H-citalopram (SERT) at rt for 1 h in 50 mM Tris, 120 mM NaCl, 5 mM KCl (pH 7.4). Nonspecific binding was determined in the presence of 10 μM fluoxetine for the SERT. The membranes were washed and the radioactivity was counted as above. Calculations for Ki at the SERT were based on a Kd value for ^3H-citalopram and a ligand concentration of 3.1 nM.

T3 sequence (P31645 whole entry): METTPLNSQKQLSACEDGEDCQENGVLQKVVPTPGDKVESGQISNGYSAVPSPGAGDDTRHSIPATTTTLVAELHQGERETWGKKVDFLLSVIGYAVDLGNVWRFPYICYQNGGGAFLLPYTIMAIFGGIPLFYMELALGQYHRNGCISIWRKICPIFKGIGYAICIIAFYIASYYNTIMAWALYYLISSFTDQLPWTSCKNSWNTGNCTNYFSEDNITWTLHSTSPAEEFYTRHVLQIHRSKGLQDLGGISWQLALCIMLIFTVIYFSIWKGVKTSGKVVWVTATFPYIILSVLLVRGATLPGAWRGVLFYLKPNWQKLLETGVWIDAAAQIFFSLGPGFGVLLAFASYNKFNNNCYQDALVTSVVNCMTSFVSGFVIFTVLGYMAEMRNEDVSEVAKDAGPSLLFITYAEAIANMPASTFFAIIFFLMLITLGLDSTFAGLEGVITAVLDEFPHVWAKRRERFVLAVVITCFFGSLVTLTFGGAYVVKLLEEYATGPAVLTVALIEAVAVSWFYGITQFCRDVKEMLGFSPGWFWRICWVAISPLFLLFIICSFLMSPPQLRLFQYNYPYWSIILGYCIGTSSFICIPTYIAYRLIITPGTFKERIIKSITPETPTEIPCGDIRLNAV
T1 sequence (Q9Y5N1 whole entry): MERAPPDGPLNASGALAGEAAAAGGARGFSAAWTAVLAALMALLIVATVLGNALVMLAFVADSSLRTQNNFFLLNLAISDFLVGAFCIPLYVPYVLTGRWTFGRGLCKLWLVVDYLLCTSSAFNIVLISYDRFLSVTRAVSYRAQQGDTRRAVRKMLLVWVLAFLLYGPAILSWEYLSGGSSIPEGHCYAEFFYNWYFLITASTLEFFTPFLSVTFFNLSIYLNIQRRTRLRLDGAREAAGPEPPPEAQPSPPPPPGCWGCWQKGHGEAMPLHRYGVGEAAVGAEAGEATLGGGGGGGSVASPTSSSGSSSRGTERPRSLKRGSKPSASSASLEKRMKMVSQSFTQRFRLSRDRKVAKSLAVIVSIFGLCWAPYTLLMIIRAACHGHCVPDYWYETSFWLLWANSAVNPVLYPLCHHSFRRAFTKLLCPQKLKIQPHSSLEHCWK

In the case of `CN(C)CCC(Oc1ccc([N+](=O)[O-])cc1)c1ccc(OCCCN2CCCCC2)cc1` (centres unmarked) [Example 12, Dimethyl-{3-(4-nitro-phenoxy)-3-[4-(3-piperidin-1-yl-propoxy)phenyl]-propyl}-amine], the values for the Ki at human H3 receptor, at Rat SERT and at human SERT were 0.9 nM, 4 nM and 9 nM, respectively.

Regarding `CN(C)CCC(Oc1ccc(C#N)cc1)c1ccc(OCCCN2CCCCC2)cc1` (centres unmarked) [Example 5, 4-{3-Dimethylamino-1-[4-(3-piperidin-1-yl-propoxy)-phenyl]-propoxy}-benzonitrile], the Ki at human H3 receptor was 0.2 nM; at Rat SERT, 8 nM; on human SERT it was 158 nM.

With `c1ccc(OC(CCN2CCCC2)c2ccc(OCCCN3CCCCC3)cc2)cc1` (centres unmarked) [Example 73, 1-{3-[4-(1-Phenoxy-3-pyrrolidin-1-yl-propyl)-phenoxy]-propyl}-piperidine], the figures for the Ki at human H3 receptor, on Rat SERT and at human SERT were 0.2 nM, 633 nM and 4000 nM, respectively.

Turning to `COc1ccc(OC(CCN(C)C)c2ccc(C#CCCN3CCSCC3)cc2)cc1` (centres unmarked) [Example 26, {3-(4-Methoxy-phenoxy)-3-[4-(4-thiomorpholin-4-yl-but-1-ynyl)phenyl]-propyl}-dimethyl-amine], the Ki amounted to 11 nM at human H3 receptor and 43 nM at Rat SERT.

For `CN(C)CCC(Oc1ccc(C(F)(F)F)cc1)c1ccc(C#CCCN2CCSCC2)cc1` (centres unmarked) [Example 28, Dimethyl-[3-[4-(4-thiomorpholin-4-yl-but-1-ynyl)-phenyl]-3-(4-trifluoromethyl-phenoxy)-propyl]-amine], the Ki on human H3 receptor was determined as 122 nM; on Rat SERT, 170 nM.

Take `CN(C)CCC(Oc1ccc(C#CCCN2CCSCC2)cc1)c1ccc(C(F)(F)F)cc1` (centres unmarked) [Example 76, Dimethyl-[3-[4-(4-thiomorpholin-4-yl-but-1-ynyl)-phenoxy]-3-(4-trifluoromethyl-phenyl)-propyl]-amine]: the values for the Ki at human H3 receptor and at Rat SERT were 75 nM and 537 nM, respectively.

Consider `CN(C)CCC(Oc1ccc(Cl)cc1)c1ccc(C#CCCN2CCCCC2)cc1` (centres unmarked) [Example 25, {3-(4-Chloro-phenoxy)-3-[4-(4-piperidin-1-yl-but-1-ynyl)-phenyl]-propyl}-dimethyl-amine], for which the results for the Ki at human H3 receptor and at Rat SERT were 21 nM and 39 nM, respectively.

As for `CNCCC(Oc1ccccc1)c1ccc(OCCCN2CCCCC2)cc1` (centres unmarked) [Example 72, Methyl-{3-phenoxy-3-[4-(3-piperidin-1-yl-propoxy)-phenyl]-propyl}-amine], the figures for the Ki on human H3 receptor, at Rat SERT and on human SERT were 0.9 nM, 5 nM and 25 nM, respectively.

With `CN(C)CCC(Oc1ccc(Cl)c(Cl)c1)c1ccc(OCCCN2CCCCC2)cc1` (single isomer, unassigned; (-)) [Example 74, (−){3-(3,4-Dichloro-phenoxy)-3-[4-(3-piperidin-1-yl-propoxy)phenyl]-propyl}-dimethyl-amine], the affinity on Rat SERT, expressed as Ki, was 11 nM. That is a double-digit nanomolar value.

Take `CN(C)CCC(Oc1ccc(F)cc1)c1ccc(OCCCN2CCCCC2)cc1` (centres unmarked) [Example 10, {3-(4-Fluoro-phenoxy)-3-[4-(3-piperidin-1-yl-propoxy)-phenyl]-propyl}-dimethyl-amine]: the Ki came out at 1 nM on human H3 receptor, 1.3 nM at Rat SERT and 46 nM at human SERT.

Take `CN(C)CCC(Oc1ccc(C(F)(F)F)cc1)c1ccc(C(=O)N2CCN(C3CCCCC3)CC2)cc1` (centres unmarked) [Example 78, (4-Cyclohexyl-piperazin-1-yl)-{4-[3-dimethylamino-1-(4-trifluoromethyl-phenoxy)-propyl]-phenyl}-methanone]: the inhibition constant (Ki) came to 22 nM at human H3 receptor and 223 nM at Rat SERT.

Turning to `CN(C)CCC(Oc1ccc(Cl)c(Cl)c1)c1ccc(OCCCN2CCCCC2)cc1` (single isomer, unassigned; (+)) [Example 75, (+)-{3-(3,4-Dichloro-phenoxy)-3-[4-(3-piperidin-1-yl-propoxy)phenyl]-propyl}-dimethyl-amine], the Ki on Rat SERT came out at 9.7 nM.

Regarding `CN(C)CCC(Oc1ccc(C#CCCN2CCOCC2)cc1)c1ccccc1` (centres unmarked) [Example 61, Dimethyl-{3-[4-(4-morpholin-4-yl-but-1-ynyl)-phenoxy]-3-phenyl-propyl}-amine], the Ki on human H3 receptor was determined as 102 nM; on Rat SERT, 108 nM.

As to `CCCCN1CCN(Cc2ccc(C(CCN(C)C)Oc3ccc(C(F)(F)F)cc3)cc2)CC1` (centres unmarked) [Example 49, [3-[4-(4-Butyl-piperazin-1-ylmethyl)-phenyl]-3-(4-trifluoromethylphenoxy)-propyl]-dimethyl-amine], the Ki on human H3 receptor was 73 nM; at Rat SERT it was 48 nM.

On to `CN(C)CCC(Oc1cccc(Cl)c1)c1ccc(OCCCN2CCCCC2)cc1` (centres unmarked) [Example 14, {3-(3-Chloro-phenoxy)-3-[4-(3-piperidin-1-yl-propoxy)-phenyl]-propyl}-dimethyl-amine], for which the values for the Ki on human H3 receptor and on human SERT were 1.7 nM and 7 nM, respectively.

In the case of `CN(C)CCC(Oc1ccc(C#CCCN2CCSCC2)cc1)c1ccc(Cl)cc1` (centres unmarked) [Example 58, {3-(4-Chloro-phenyl)-3-[4-(4-thiomorpholin-4-yl-but-1-ynyl)phenoxy]-propyl}-dimethyl-amine], the Ki at human H3 receptor turned out to be 29 nM; at Rat SERT, 150 nM.

Regarding `CN(C)CCC(Oc1ccc(C#CCCN2CCOCC2)cc1)c1ccc(C(F)(F)F)cc1` (centres unmarked) [Example 64, Dimethyl-[3-[4-(4-morpholin-4-yl-but-1-ynyl)-phenoxy]-3-(4-trifluoromethyl-phenyl)-propyl]-amine], the Ki on human H3 receptor came to 4000 nM; on Rat SERT, 342 nM.

For the molecule `CC(C)N1CCN(CCC#Cc2ccc(OC(CCN(C)C)c3ccc(C(F)(F)F)cc3)cc2)CC1` (centres unmarked) [Example 62, [3-{4-[4-(4-Isopropyl-piperazin-1-yl)-but-1-ynyl]-phenoxy}-3-(4-trifluoromethyl-phenyl)-propyl]-dimethyl-amine], the figures for the Ki on human H3 receptor and at Rat SERT were 143 nM and 166 nM, respectively.

At Rat SERT, `CN(C)CCC(Oc1ccc(Cl)c(Cl)c1)c1ccc(OCCCN2CCCCC2)cc1` (centres unmarked) [Example 9, {3-(3,4-Dichloro-phenoxy)-3-[4-(3-piperidin-1-yl-propoxy)-phenyl]-propyl}-dimethyl-amine] gave a Ki of 6 nM.

As to `CC(C)N1CCN(C(=O)c2ccc(OC(CCN(C)C)c3ccc(C(F)(F)F)cc3)cc2)CC1` (centres unmarked) [Example 46, {4-[3-Dimethylamino-1-(4-trifluoromethyl-phenyl)-propoxy]-phenyl}-(4-isopropyl-piperazin-1-yl)-methanone], the results for the Ki at human H3 receptor and on Rat SERT were 1 nM and 58 nM, respectively.

`CN(C)CCC(Oc1ccc(C#CCCN2CCOCC2)cc1)c1ccc(Cl)cc1` (centres unmarked) [Example 59, {3-(4-Chloro-phenyl)-3-[4-(4-morpholin-4-yl-but-1-ynyl)-phenoxy]-propyl}-dimethyl-amine]: the Ki on human H3 receptor worked out at 56 nM; on Rat SERT it was 181 nM.

As to `CC(C)N1CCN(CCC#Cc2ccc(C(CCN(C)C)Oc3ccc(C(F)(F)F)cc3)cc2)CC1` (centres unmarked) [Example 29, [3-{4-[4-(4-Isopropyl-piperazin-1-yl)-but-1-ynyl]-phenyl}-3-(4-trifluoromethyl-phenoxy)-propyl]-dimethyl-amine], the Ki at human H3 receptor was determined as 255 nM; on Rat SERT, 39 nM.

For the molecule `CN(C)CCC(Oc1ccc(C#CCCN2CCCCC2)cc1)c1ccc(F)cc1` (centres unmarked) [Example 77, {3-(4-Fluoro-phenyl)-3-[4-(4-piperidin-1-yl-but-1-ynyl)-phenoxy]-propyl}-dimethyl-amine], the figures for the Ki on human H3 receptor and at Rat SERT were 364 nM and 165 nM, respectively.

Regarding `CN(C)CCC(Oc1ccc(C(F)(F)F)cc1)c1ccc(C#CCCN2CCOCC2)cc1` (centres unmarked) [Example 27, Dimethyl-[3-[4-(4-morpholin-4-yl-but-1-ynyl)-phenyl]-3-(4-trifluoromethyl-phenoxy)-propyl]-amine], the Ki at human H3 receptor came to 60 nM; at Rat SERT it was 80 nM.

For the molecule `CCCCN1CCN(C(=O)c2ccc(C(CCN(C)C)Oc3ccc(C(F)(F)F)cc3)cc2)CC1` (centres unmarked) [Example 48, (4-Butyl-piperazin-1-yl)-{4-[3-dimethylamino-1-(4-trifluoromethylphenoxy)-propyl]-phenyl}-methanone], the Ki was found to be 17 nM on human H3 receptor and 86 nM on Rat SERT.

In the case of `CN(C)CCC(Oc1ccc(Cl)c(Cl)c1)c1ccc(C#CCCN2CCCCC2)cc1` (centres unmarked) [Example 30, {3-(3,4-Dichloro-phenoxy)-3-[4-(4-piperidin-1-yl-but-1-ynyl)phenyl]-propyl}-dimethyl-amine], the Ki at human H3 receptor is 24 nM; on Rat SERT it was 21 nM.

On to `CN(C)CCC(Oc1ccc(C#CCCN2CCSCC2)cc1)c1ccccc1` (centres unmarked) [Example 63, Dimethyl-{3-phenyl-3-[4-(4-thiomorpholin-4-yl-but-1-ynyl)phenoxy]-propyl}-amine], for which the values for the Ki on human H3 receptor and on Rat SERT were 18 nM and 52 nM, respectively.

One may read the Ki as the dissociation constant of the complex between target and ligand, obtained from inhibition or displacement. A low value points to tighter binding.

These data come from patent publication US20080139564A1, “SUBSTITUTED PHENYL PROPYL AMINES AS HISTAMINE H3 RECEPTOR AND SEROTONIN TRANSPORTER MODULATORS” (priority 2006, published 2008).
